{"source": "patent EP4782437A1", "about": "“HETEROARYL COMPOUND, AND PREPARATION METHOD THEREFOR AND USE THEREOF IN MEDICINE” (Jiangsu Hengrui Pharmaceuticals Co., Ltd., priority 2023, dated 2025)", "molecular_target": "T1, BTK recombinant human protein (Homo sapiens, UniProt Q06187)", "T1 construct": "purchased Thermo PV3363", "assay": "Inhibitory activity against BTK (HTRF KinEASE-TK kit)", "format": "biochemical", "conditions": "2 nM BTK, 10 µM ATP, 0.5 hours preincubation at 25°C; read-out: IC50 values of inhibitory activity against BTK", "protocol": "Test example 1: Inhibitory activity of compounds of the present disclosure against BTK • I. Experimental materials and instruments • 1. BTK recombinant human protein (Thermo, PV3363) • 2. HTRF KinEASE-TK kit (Cisbio, 62TK0PEC) • 3. 1 M MgCl2 (Thermo, AM9530G) • 4. 1 M MnCl2 (Sigma, M1787-100ML) • 5. Adenosine 5'-triphosphate (ATP) (New England Biolabs, P0756L) • 6. DTT 2M (Sangon Biotech, B645939) • 7. Ultrapure water (Invitrogen, 10977-015) • 8. OptiPlate-384, white opaque 384-well microplate (PerkinElmer, 6007290) • 9. 96-well round-bottom plate (Corning, 3788) • 10. Biochemical incubator (Shanghai Boxun Medical & Biological Instruments Co., Ltd., BSP-100) • 11. 15-mL centrifuge tube (Corning) • 12. Benchtop high-speed centrifuge (Changsha Yingtai Instrument Co., Ltd., TD4N) • 13. Multifunctional microplate reader (PerkinElmer, EnVision) • 14. Bravo liquid handling platform (Agilent Technologies, SGC120TH34702) • II. Experimental procedure\nThe HTRF KinEASE-TK kit is designed to detect changes in BTK enzyme activity based on two technologies, i.e., fluorescence resonance energy transfer and time-resolved fluorescence. The kit is operated in two stages: 1) enzyme reaction stage: the enzyme reaction is initiated by adding ATP, where the enzyme phosphorylates the substrate, and the compounds are then added to competitively bind to BTK against ATP, thereby inhibiting substrate phosphorylation; and 2) detection stage: after the enzyme reaction is complete, a detection reagent is added to terminate the reaction. Different groups on the phosphorylated substrate bind to the energy donor and energy acceptor, respectively, bringing the two into close proximity. During the instrumental readout, the energy donor is excited by an external light source, which enables resonance energy transfer to the proximal energy acceptor. The acceptor, in turn, becomes excited and emits light at a specific wavelength. Thus, changes in enzyme activity can be detected by measuring the signal values, and the inhibition rate of the compounds against the target enzyme can be calculated, thereby evaluating the inhibitory effect of the compounds on BTK enzyme activity.\nPreparation of enzyme reaction buffer: 5× Kinase Buffer was diluted 5-fold with ultrapure water, and then the stock solutions of MgCl2, MnCl2 and DTT were added. The final composition of the buffer was as follows: 1× Kinase Buffer, 10 mM MgCl2, 1 mM MnCl2, and 1 mM DTT.\n(§1) Preparation of 5 × BTK working solution: The BTK (5.17 µM) stock solution was removed from -20°C storage. Given that the BTK concentration in the enzyme reaction system was 2 nM and the concentration of the 5× working solution was 10 nM, the BTK stock solution was diluted 517-fold with the enzyme reaction buffer according to the volume required for the experiment. The diluted solution was then added to the 384-well plate at 2 µL per well. The plate was placed in a plate spinner and centrifuged at 2000 rpm for 1 minute to bring the liquid to the bottom of the wells.\nas §1, with “[…]. Given” for “Preparation of 5 × BTK working solution: The BTK (5.17 µM) stock solution was removed from -20°C storage. Given”, “the SEB” for “the BTK”, “was 50” for “was 2”, “was 250” for “was 10”, “diluted 10-fold” for “diluted 517-fold”\nThe test compounds dissolved in 100% DMSO at 20 mM were diluted with 100% DMSO to a concentration of 200 µM, which represents the 200× concentration of the highest compound concentration point in the reaction system. The compounds at this concentration were then subjected to 10-point 3-fold serial dilution with 100% DMSO. The positive control wells and negative control wells were set with 100% DMSO. […]"}
{"compound": "C=CC(=O)N(C)CCOc1c(N)ncnc1-c1cc(F)cc(NC(=O)c2cc3c(cc2F)C2(CC2)CO3)c1C", "note": "[Example 3, N-(3-(6-amino-5-(2-(N-methacrylamido)ethoxy)pyrimidin-4-yl)-5-fluoro-2-methylphenyl)-5-fluoro-2H-spiro[benzofuran-3,1'-cyclopropane]-6-carboxamide]", "values": [{"measurement": "IC50", "value": 8.3, "unit": "nM"}]}
